Test: GC-MS analysis of volatile components after light exposure
Type: physicochemical
Settings: after 5 d of light exposure
Protocol: Untreated ATVO, the physical mixture (10 mL ATVO, 10 mL distilled water, and 0.3 g MSTC mixed uniformly with a glass rod), and the MSTC-stabilized PE were each placed into flat weighing bottles (40 × 25 mm). The samples were stored in a light-stability chamber with a light intensity of 4500 ± 500 lx and a controlled temperature of 25 ± 0.5 °C. Aliquots were collected after 1, 3, and 5 days of light exposure. The physical mixture and PE groups were centrifuged (10,000 rpm, 10 min) to achieve phase separation prior to analysis. All assays were performed in triplicate, and the obtained samples were maintained at 4 °C until analyzed.Volatile oil retention rate (%) = Vt/V0 × 100%(2) The volatile components of ATVO were determined by gas chromatography-mass spectrometry (GC-MS) according to a previously reported method. Samples from each treatment group were prepared before analysis. Briefly, 100 μL of each volatile oil sample was transferred into a 10 mL volumetric flask. Then, 100 μL of n-docosane internal standard solution (10 mg·mL^−1) was added. The mixture was diluted to volume with n-hexane. […] It was then vortex-mixed and filtered through a 0.22 μm organic membrane filter. The filtrate was used for GC-MS analysis. […] Relative quantification was performed using n-docosane as the internal standard. […]

C=C/C(C)=C/CC=C(C)C [003779-61-1, (E)-3,7-dimethylocta-1,3,6-triene]
relative content of the component (PE group): well retained | relative content of the component (free ATVO (O) group implied): decreased to zero

— article PMC13415033, “Pickering Emulsion Stabilized by Chitosan-Modified Saigae Tataricae Cornu Particles for Improving the Oxidative Stability and In Vivo Pharmacokinetics of Acorus tatarinowii Schott Volatile Oil” (Pharmaceuticals, 2026)
